{"source": "patent US9683014B2", "about": "“Dipeptide mimetics of NGF and BDNF neurotrophins” (UCHREZHDENIE ROSSIISKOI AKADEMII MEDITSYNSKIKH NAUK …, priority 2009, dated 2017)", "key": {"HT-22 cells [1]": {"tested_on": "HT-22 cells", "test": "Oxidative stress (H2O2) model in cultured HT-22 cells (MTT test)", "type": "cell-based, mouse", "conditions": "added 24 hours prior to the stress exposure, 10^−8 M to 10^−5 M", "procedure": "To induce an oxidative stress, the cells were placed in a growth medium containing 5% FBS, then a freshly prepared H2O2 solution was added to a final concentration of 1.5 mM and incubated for 30 min at 37° C. and 5% CO2. Thereafter, the medium was replaced with a new one and the cells were cultured for 4 h under the same conditions.\nThe determination of cell viability was carried out by MTT test. […] At the end of an experiment the growth medium was replaced with an MTT solution (0.5 mg/ml) and incubated for 30 min at 37° C. and 5% CO2. The MTT solution was then removed from the wells and DMSO was added to dissolve the formazan precipitate. Then the optical density was measured using a Multiscan (Thermo) spectrophotometer at a wavelength of 600 nm."}, "Balb/c mice": {"tested_on": "Balb/c mice", "test": "Behavioral despair test according to Porsolt", "type": "in vivo, mouse", "protocol": "In order to detect a potential antidepressant activity of the peptide BDNF mimetics, the behavioral despair test was used in the original version (Porsolt R. D., Anton G., Blavet N., Jalfre M. Behavioral despair in rats: a new model sensitive to antidepressants. European Journal of Pharmacology, 1978, 47, 379-391).\nFor these experiments, male Balb/c mice weighing 20-22 g were used. On day 1, the animals were placed in a narrow vessel filled with water at 22° C. for 10 min. 60 min later a test compound was administered intraperitoneally (GSB-106 at 1 mg/kg, GBK-108 and GBK-201 at 0.01, 0.1, 1.0, 10.0 mg/kg). 24 hours later the animals were placed again in the same conditions to record the retention time of the characteristic immobile posture (abandoning any active defensive and exploratory behavior) for a 5 min test period. Imipramine was administered 60 min prior to the 5 min test period (on day 2). The control groups were treated with distilled water. Each experimental group comprised at least 6 mice."}, "HT-22 neuronal cell line": {"tested_on": "HT-22 neuronal cell line", "test": "Viability of HT-22 neuronal cell line without damaging factors (MTT test)", "type": "cell-based, mouse", "conditions": "FIG. 1.1, different molar concentrations", "protocol": "The rat adrenal […] pheochromocytoma cell line PC12 was obtained from the Cell Culture Museum, RAN Institute of Molecular Genetics. The immortalized mouse hippocampal cell line HT-22 was a gift from Prof. F. Viegant, Utrecht University, the Netherlands.\nThe cells were grown in DMEM medium containing 5% FBS and 2 mM L-glutamine. The cells were incubated at 37° C. and 5% CO2. The growth medium was changed at 24 hours after inoculation and every 3 days thereafter. The cells were re-plated every week into culture flasks with a total area of 75 cm^2.\nAll types of cells were plated in DMEM medium."}, "HT-22 cells [2]": {"tested_on": "HT-22 cells", "conditions": "added 24 hours prior to glutamate", "protocol": "The determination of cell viability was carried out by MTT test. MTT is a water soluble tetrazolium salt of yellow color which readily permeates cells. In living cells, MTT is converted into water insoluble formazan crystals of violet color. At the end of an experiment the growth medium was replaced with an MTT solution (0.5 mg/ml) and incubated for 30 min at 37° C. and 5% CO2. The MTT solution was then removed from the wells and DMSO was added to dissolve the formazan precipitate. Then the optical density was measured using a Multiscan (Thermo) spectrophotometer at a wavelength of 600 nm."}}, "note": "Peptide text beside a SMILES is read from it.", "data": [{"molecule": "CC(=O)N[C@@H](CC(=O)O)C(=O)N[C@@H](CO)C(N)=O", "note": "[GBK-108, N-acetyl-aspartyl-serine amide] (Ac-Asp-Ser-NH2)", "values": [{"measurement": "neuronal survival under oxidative stress", "setting": "HT-22 cells [1]", "result": "improved the neuronal survival"}, {"measurement": "immobility time", "setting": "Balb/c mice; GBK-108 at 10 mg/kg i.p., 24 h before the test", "result": "increased the immobility time"}]}, {"molecule": "NCCCC[C@H](NC(=O)[C@H](CCC(=O)O)NC(=O)CCC(=O)O)C(=O)NCCCCNC(=O)[C@H](CCCCN)NC(=O)[C@H](CCC(=O)O)NC(=O)CCC(=O)O", "note": "[GK-2c, bis-(N-monosuccinyl-glutamyl-lysine)tetramethylenediamide]", "values": [{"measurement": "viability of HT-22 cells", "setting": "HT-22 neuronal cell line", "result": "reduced the viability"}]}, {"molecule": "NCCCC[C@H](NC(=O)[C@H](CO)NC(=O)CCC(=O)O)C(=O)NCCCCCCNC(=O)[C@H](CCCCN)NC(=O)[C@H](CO)NC(=O)CCC(=O)O", "note": "[GSB-106, bis-(N-monosuccinyl-seryl-lysine) hexamethylenediamide]", "values": [{"measurement": "neuronal survival under oxidative stress", "setting": "HT-22 cells [1]", "result": "improved the neuronal survival"}, {"measurement": "protective effect against glutamate cytotoxicity", "setting": "HT-22 cells [2]", "result": "protective effect"}, {"measurement": "immobility time", "setting": "Balb/c mice; GSB-106 1 mg/kg i.p., 24 h before the test", "result": "reducing the immobility time"}]}, {"molecule": "CN(C)CCCN1c2ccccc2CCc2ccccc21", "note": "[imipramine, Imipramine, reference compound]", "values": [{"measurement": "immobility time", "setting": "Balb/c mice; imipramine 60 min prior to the 5 min test", "result": "reducing the immobility time"}]}]}
